According to the supplement of paper PMC8967900:

Columns and labels:
Test in all cases: selective drug sensitivity score (sDSS, relative to normal bone marrow) (sDSS (score)); higher = more potent and effective on the cell line relative to normal bone marrow cells
Settings in all cases: 72 h
MOLT-16 = system: MOLT-16
NALM-16 = system: NALM-16
MHH-CALL-4 = system: MHH-CALL-4
REH = system: REH
697 = system: 697
CCRF-CEM = system: CCRF-CEM
SUP-B15 = system: SUP-B15
KOPN-8 = system: KOPN-8
COG-LL-402h = system: COG-LL-402h
COG-LL-317 = system: COG-LL-317
ALL-PO = system: ALL-PO
TMD5 = system: TMD5
NALM-6 = system: NALM-6
MHH-CALL-2 = system: MHH-CALL-2
KARPAS-45 = system: KARPAS-45
RPMI-8402 = system: RPMI-8402
PEER = system: PEER
PF-382 = system: PF-382
COG-LL-332h = system: COG-LL-332h
MOLT-4 = system: MOLT-4
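Also: ALL cell lines in 384-well plates, five doses spanning 10,000-fold, each plate scaled between vehicle and 100 µmol/L benzalkonium chloride controls, sDSS an adapted area-under-curve metric.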

`CC(=O)[C@]1(O)Cc2c(O)c3c(c(O)c2[C@@H](O[C@H]2C[C@H](N)[C@H](O)[C@H](C)O2)C1)C(=O)c1ccccc1C3=O` [Idarubicin] (top concentration 1000 nM) was tested, and the “selective drug sensitivity score” value (MOLT-16) was 15.9, the “selective drug sensitivity score” value (NALM-16) was -2.56 and the “selective drug sensitivity score” value (MHH-CALL-4) was 7.64. For the same compound, the “selective drug sensitivity score” value (REH) was 11.8, the “selective drug sensitivity score” value 697 was 8.84 and the “selective drug sensitivity score” value (CCRF-CEM) was 8.84. For the same compound, the “selective drug sensitivity score” value (SUP-B15) was 9.74, the “selective drug sensitivity score” value (KOPN-8) was 8.74 and the “selective drug sensitivity score” value (COG-LL-402h) was 14.9. The “selective drug sensitivity score” value (COG-LL-317) was 13.2, the “selective drug sensitivity score” value (ALL-PO) was 1.64 and the “selective drug sensitivity score” value (TMD5) was 1.94. The “selective drug sensitivity score” value (NALM-6) was 7.94, the “selective drug sensitivity score” value (MHH-CALL-2) was 8.04 and the “selective drug sensitivity score” value (KARPAS-45) was -2.36. The “selective drug sensitivity score” value (RPMI-8402) was 10.5, the “selective drug sensitivity score” value (PEER) was -4.86 and the “selective drug sensitivity score” value (PF-382) was 1.24. For the same compound, the “selective drug sensitivity score” value (COG-LL-332h) was 10 and the “selective drug sensitivity score” value (MOLT-4) was 7.74.

`COc1cc2nccc(Oc3ccc(NC(=O)NC4CC4)c(Cl)c3)c2cc1C(N)=O` [Lenvatinib] (top concentration 2500 nM) was tested, and the “selective drug sensitivity score” value (MOLT-16) was -0.04, the “selective drug sensitivity score” value (NALM-16) was -0.24 and the “selective drug sensitivity score” value (MHH-CALL-4) was -0.24. For the same compound, the “selective drug sensitivity score” value (REH) was -0.24, the “selective drug sensitivity score” value 697 was 2.16 and the “selective drug sensitivity score” value (CCRF-CEM) was 0.16. The “selective drug sensitivity score” value (SUP-B15) was 6.46, the “selective drug sensitivity score” value (KOPN-8) was 0.86 and the “selective drug sensitivity score” value (COG-LL-402h) was 1.56. For the same compound, the “selective drug sensitivity score” value (COG-LL-317) was -0.24, the “selective drug sensitivity score” value (ALL-PO) was 3.86 and the “selective drug sensitivity score” value (TMD5) was 0.66. The “selective drug sensitivity score” value (NALM-6) was -0.24, the “selective drug sensitivity score” value (MHH-CALL-2) was 1.46 and the “selective drug sensitivity score” value (KARPAS-45) was 0.16. The “selective drug sensitivity score” value (RPMI-8402) was -0.24, the “selective drug sensitivity score” value (PEER) was 2.26 and the “selective drug sensitivity score” value (PF-382) was -0.24. For the same compound, the “selective drug sensitivity score” value (COG-LL-332h) was 1.66 and the “selective drug sensitivity score” value (MOLT-4) was 0.36.

With `N#Cc1ccc(C(c2ccc(C#N)cc2)n2cncn2)cc1` [Letrozole] (top concentration 10000 nM) the “selective drug sensitivity score” value (MOLT-16) was -0.04, the “selective drug sensitivity score” value (NALM-16) was -0.04 and the “selective drug sensitivity score” value (MHH-CALL-4) was -0.04. The “selective drug sensitivity score” value (REH) was 4.76, the “selective drug sensitivity score” value 697 was -0.04 and the “selective drug sensitivity score” value (CCRF-CEM) was -0.04. For the same compound, the “selective drug sensitivity score” value (SUP-B15) was 0.36, the “selective drug sensitivity score” value (KOPN-8) was -0.04 and the “selective drug sensitivity score” value (COG-LL-402h) was -0.04. For the same compound, the “selective drug sensitivity score” value (COG-LL-317) was -0.04, the “selective drug sensitivity score” value (ALL-PO) was -0.04 and the “selective drug sensitivity score” value (TMD5) was -0.04. For the same compound, the “selective drug sensitivity score” value (NALM-6) was -0.04, the “selective drug sensitivity score” value (MHH-CALL-2) was -0.04 and the “selective drug sensitivity score” value (KARPAS-45) was -0.04. For the same compound, the “selective drug sensitivity score” value (RPMI-8402) was -0.04, the “selective drug sensitivity score” value (PEER) was -0.04 and the “selective drug sensitivity score” value (PF-382) was -0.04. The “selective drug sensitivity score” value (COG-LL-332h) was -0.04 and the “selective drug sensitivity score” value (MOLT-4) was -0.04.

In the case of `CCNCCS(=O)(=O)NC[C@@]1(c2ccccc2)SC(NC(=O)C(C)(C)C)=NN1C(=O)C(C)(C)C` [Litronesib] (top concentration 1000 nM), the “selective drug sensitivity score” value (MOLT-16) is reported as 20.2, the “selective drug sensitivity score” value (NALM-16) is reported as 14.3 and the “selective drug sensitivity score” value (MHH-CALL-4) is reported as 8.54. For the same compound, the “selective drug sensitivity score” value (REH) was 22.3, the “selective drug sensitivity score” value 697 was 20.9 and the “selective drug sensitivity score” value (CCRF-CEM) was 19.8. For the same compound, the “selective drug sensitivity score” value (SUP-B15) was 21.7, the “selective drug sensitivity score” value (KOPN-8) was 20.6 and the “selective drug sensitivity score” value (COG-LL-402h) was 18. The “selective drug sensitivity score” value (COG-LL-317) was 19.5, the “selective drug sensitivity score” value (ALL-PO) was 14.8 and the “selective drug sensitivity score” value (TMD5) was 9.64. The “selective drug sensitivity score” value (NALM-6) was 21.5, the “selective drug sensitivity score” value (MHH-CALL-2) was 15.6 and the “selective drug sensitivity score” value (KARPAS-45) was 21.9. For the same compound, the “selective drug sensitivity score” value (RPMI-8402) was 18.7, the “selective drug sensitivity score” value (PEER) was 21.4 and the “selective drug sensitivity score” value (PF-382) was 13.7. For the same compound, the “selective drug sensitivity score” value (COG-LL-332h) was 22.1 and the “selective drug sensitivity score” value (MOLT-4) was 13.8.

`CC[C@H](C)C(=O)O[C@H]1C[C@@H](C)C=C2C=C[C@H](C)[C@H](CC[C@@H]3C[C@@H](O)CC(=O)O3)[C@H]21` [Lovastatin] (top concentration 10000 nM) was tested, and the “selective drug sensitivity score” value (MOLT-16) was 1.7, the “selective drug sensitivity score” value (NALM-16) was -0.1 and the “selective drug sensitivity score” value (MHH-CALL-4) was -0.1. For the same compound, the “selective drug sensitivity score” value (REH) was 1, the “selective drug sensitivity score” value 697 was 0.1 and the “selective drug sensitivity score” value (CCRF-CEM) was 0. For the same compound, the “selective drug sensitivity score” value (SUP-B15) was -0.1, the “selective drug sensitivity score” value (KOPN-8) was 4.3 and the “selective drug sensitivity score” value (COG-LL-402h) was -0.1. For the same compound, the “selective drug sensitivity score” value (COG-LL-317) was 3.6, the “selective drug sensitivity score” value (ALL-PO) was -0.1 and the “selective drug sensitivity score” value (TMD5) was -0.1. For the same compound, the “selective drug sensitivity score” value (NALM-6) was -0.1, the “selective drug sensitivity score” value (MHH-CALL-2) was 8.7 and the “selective drug sensitivity score” value (KARPAS-45) was 3. For the same compound, the “selective drug sensitivity score” value (RPMI-8402) was 1.8, the “selective drug sensitivity score” value (PEER) was 1.2 and the “selective drug sensitivity score” value (PF-382) was 0. For the same compound, the “selective drug sensitivity score” value (COG-LL-332h) was 0.1 and the “selective drug sensitivity score” value (MOLT-4) was -0.1.

In the case of `Cn1cc(-c2cnn3c(N)c(Br)c([C@@H]4CCCNC4)nc23)cn1` [MK-8776] (top concentration 2500 nM), the “selective drug sensitivity score” value (MOLT-16) is reported as 1.44, the “selective drug sensitivity score” value (NALM-16) is reported as 1.14 and the “selective drug sensitivity score” value (MHH-CALL-4) is reported as -0.46. The “selective drug sensitivity score” value (REH) was 0.24, the “selective drug sensitivity score” value 697 was 1.54 and the “selective drug sensitivity score” value (CCRF-CEM) was 1.04. The “selective drug sensitivity score” value (SUP-B15) was -0.06, the “selective drug sensitivity score” value (KOPN-8) was -0.46 and the “selective drug sensitivity score” value (COG-LL-402h) was 2.64. For the same compound, the “selective drug sensitivity score” value (COG-LL-317) was 6.14, the “selective drug sensitivity score” value (ALL-PO) was 4.44 and the “selective drug sensitivity score” value (TMD5) was -1.46. For the same compound, the “selective drug sensitivity score” value (NALM-6) was -1.36, the “selective drug sensitivity score” value (MHH-CALL-2) was 2.54 and the “selective drug sensitivity score” value (KARPAS-45) was 0.34. The “selective drug sensitivity score” value (RPMI-8402) was 1.44, the “selective drug sensitivity score” value (PEER) was -0.26 and the “selective drug sensitivity score” value (PF-382) was 0.14. The “selective drug sensitivity score” value (COG-LL-332h) was 0.34 and the “selective drug sensitivity score” value (MOLT-4) was -1.46.

`Cc1cnc(-c2ccccc2C(C)C)nc1NCc1ccc(-n2ccnn2)cc1` [ML323] (top concentration 10000 nM) was tested, and the “selective drug sensitivity score” value (MOLT-16) was 3.04, the “selective drug sensitivity score” value (NALM-16) was 0.64 and the “selective drug sensitivity score” value (MHH-CALL-4) was -0.36. For the same compound, the “selective drug sensitivity score” value (REH) was 3.44, the “selective drug sensitivity score” value 697 was 3.54 and the “selective drug sensitivity score” value (CCRF-CEM) was 0.44. The “selective drug sensitivity score” value (SUP-B15) was 2.94, the “selective drug sensitivity score” value (KOPN-8) was 1.14 and the “selective drug sensitivity score” value (COG-LL-402h) was -0.36. The “selective drug sensitivity score” value (COG-LL-317) was 1.04, the “selective drug sensitivity score” value (ALL-PO) was 3.14 and the “selective drug sensitivity score” value (TMD5) was -0.26. For the same compound, the “selective drug sensitivity score” value (NALM-6) was 1.84, the “selective drug sensitivity score” value (MHH-CALL-2) was 0.24 and the “selective drug sensitivity score” value (KARPAS-45) was 4.64. For the same compound, the “selective drug sensitivity score” value (RPMI-8402) was 3.44, the “selective drug sensitivity score” value (PEER) was 4.24 and the “selective drug sensitivity score” value (PF-382) was 3.04. For the same compound, the “selective drug sensitivity score” value (COG-LL-332h) was 2.04 and the “selective drug sensitivity score” value (MOLT-4) was 1.34.

`O=C(CCNC(=O)c1ccc(OC(F)(F)F)cc1)N[C@@H]1CCCc2ccccc21` [ML390] (top concentration 50000 nM) was tested, and the “selective drug sensitivity score” value (MOLT-16) was 20.8, the “selective drug sensitivity score” value (NALM-16) was 6.6 and the “selective drug sensitivity score” value (MHH-CALL-4) was 1.8. The “selective drug sensitivity score” value (REH) was 16.1, the “selective drug sensitivity score” value 697 was 16.4 and the “selective drug sensitivity score” value (CCRF-CEM) was 9.3. For the same compound, the “selective drug sensitivity score” value (SUP-B15) was 19.1, the “selective drug sensitivity score” value (KOPN-8) was 22.3 and the “selective drug sensitivity score” value (COG-LL-402h) was 3.2. For the same compound, the “selective drug sensitivity score” value (COG-LL-317) was 16.8, the “selective drug sensitivity score” value (ALL-PO) was 5.3 and the “selective drug sensitivity score” value (TMD5) was -1.2. For the same compound, the “selective drug sensitivity score” value (NALM-6) was 10.8, the “selective drug sensitivity score” value (MHH-CALL-2) was 4.1 and the “selective drug sensitivity score” value (KARPAS-45) was 7.1. For the same compound, the “selective drug sensitivity score” value (RPMI-8402) was 12.6, the “selective drug sensitivity score” value (PEER) was 5.5 and the “selective drug sensitivity score” value (PF-382) was 9.8. For the same compound, the “selective drug sensitivity score” value (COG-LL-332h) was 16.1 and the “selective drug sensitivity score” value (MOLT-4) was 15.2.

With `CN(C)C(=N)NC(=N)N` [Metformin] (top concentration 100000 nM) the “selective drug sensitivity score” value (MOLT-16) was -0.02, the “selective drug sensitivity score” value (NALM-16) was -0.02 and the “selective drug sensitivity score” value (MHH-CALL-4) was -0.02. The “selective drug sensitivity score” value (REH) was 0.08, the “selective drug sensitivity score” value 697 was -0.02 and the “selective drug sensitivity score” value (CCRF-CEM) was -0.02. For the same compound, the “selective drug sensitivity score” value (SUP-B15) was -0.02, the “selective drug sensitivity score” value (KOPN-8) was -0.02 and the “selective drug sensitivity score” value (COG-LL-402h) was -0.02. For the same compound, the “selective drug sensitivity score” value (COG-LL-317) was -0.02, the “selective drug sensitivity score” value (ALL-PO) was -0.02 and the “selective drug sensitivity score” value (TMD5) was -0.02. For the same compound, the “selective drug sensitivity score” value (NALM-6) was -0.02, the “selective drug sensitivity score” value (MHH-CALL-2) was 0.58 and the “selective drug sensitivity score” value (KARPAS-45) was -0.02. For the same compound, the “selective drug sensitivity score” value (RPMI-8402) was -0.02, the “selective drug sensitivity score” value (PEER) was -0.02 and the “selective drug sensitivity score” value (PF-382) was -0.02. For the same compound, the “selective drug sensitivity score” value (COG-LL-332h) was -0.02 and the “selective drug sensitivity score” value (MOLT-4) was -0.02.
